The values below come from paper PMC8643097 (British journal of pharmacology, 2021).

One assay addresses Nav1.8 (Homo sapiens, UniProt Q9Y5Y9). It counts as cell-based. The note with it: CHO-K1, read-out: % inhibition at 300 μM.
In the next assay the target is Nav1.7 (Homo sapiens, UniProt Q15858). In kind it is cell-based.
Nav1.7, sequence (Q15858 whole entry): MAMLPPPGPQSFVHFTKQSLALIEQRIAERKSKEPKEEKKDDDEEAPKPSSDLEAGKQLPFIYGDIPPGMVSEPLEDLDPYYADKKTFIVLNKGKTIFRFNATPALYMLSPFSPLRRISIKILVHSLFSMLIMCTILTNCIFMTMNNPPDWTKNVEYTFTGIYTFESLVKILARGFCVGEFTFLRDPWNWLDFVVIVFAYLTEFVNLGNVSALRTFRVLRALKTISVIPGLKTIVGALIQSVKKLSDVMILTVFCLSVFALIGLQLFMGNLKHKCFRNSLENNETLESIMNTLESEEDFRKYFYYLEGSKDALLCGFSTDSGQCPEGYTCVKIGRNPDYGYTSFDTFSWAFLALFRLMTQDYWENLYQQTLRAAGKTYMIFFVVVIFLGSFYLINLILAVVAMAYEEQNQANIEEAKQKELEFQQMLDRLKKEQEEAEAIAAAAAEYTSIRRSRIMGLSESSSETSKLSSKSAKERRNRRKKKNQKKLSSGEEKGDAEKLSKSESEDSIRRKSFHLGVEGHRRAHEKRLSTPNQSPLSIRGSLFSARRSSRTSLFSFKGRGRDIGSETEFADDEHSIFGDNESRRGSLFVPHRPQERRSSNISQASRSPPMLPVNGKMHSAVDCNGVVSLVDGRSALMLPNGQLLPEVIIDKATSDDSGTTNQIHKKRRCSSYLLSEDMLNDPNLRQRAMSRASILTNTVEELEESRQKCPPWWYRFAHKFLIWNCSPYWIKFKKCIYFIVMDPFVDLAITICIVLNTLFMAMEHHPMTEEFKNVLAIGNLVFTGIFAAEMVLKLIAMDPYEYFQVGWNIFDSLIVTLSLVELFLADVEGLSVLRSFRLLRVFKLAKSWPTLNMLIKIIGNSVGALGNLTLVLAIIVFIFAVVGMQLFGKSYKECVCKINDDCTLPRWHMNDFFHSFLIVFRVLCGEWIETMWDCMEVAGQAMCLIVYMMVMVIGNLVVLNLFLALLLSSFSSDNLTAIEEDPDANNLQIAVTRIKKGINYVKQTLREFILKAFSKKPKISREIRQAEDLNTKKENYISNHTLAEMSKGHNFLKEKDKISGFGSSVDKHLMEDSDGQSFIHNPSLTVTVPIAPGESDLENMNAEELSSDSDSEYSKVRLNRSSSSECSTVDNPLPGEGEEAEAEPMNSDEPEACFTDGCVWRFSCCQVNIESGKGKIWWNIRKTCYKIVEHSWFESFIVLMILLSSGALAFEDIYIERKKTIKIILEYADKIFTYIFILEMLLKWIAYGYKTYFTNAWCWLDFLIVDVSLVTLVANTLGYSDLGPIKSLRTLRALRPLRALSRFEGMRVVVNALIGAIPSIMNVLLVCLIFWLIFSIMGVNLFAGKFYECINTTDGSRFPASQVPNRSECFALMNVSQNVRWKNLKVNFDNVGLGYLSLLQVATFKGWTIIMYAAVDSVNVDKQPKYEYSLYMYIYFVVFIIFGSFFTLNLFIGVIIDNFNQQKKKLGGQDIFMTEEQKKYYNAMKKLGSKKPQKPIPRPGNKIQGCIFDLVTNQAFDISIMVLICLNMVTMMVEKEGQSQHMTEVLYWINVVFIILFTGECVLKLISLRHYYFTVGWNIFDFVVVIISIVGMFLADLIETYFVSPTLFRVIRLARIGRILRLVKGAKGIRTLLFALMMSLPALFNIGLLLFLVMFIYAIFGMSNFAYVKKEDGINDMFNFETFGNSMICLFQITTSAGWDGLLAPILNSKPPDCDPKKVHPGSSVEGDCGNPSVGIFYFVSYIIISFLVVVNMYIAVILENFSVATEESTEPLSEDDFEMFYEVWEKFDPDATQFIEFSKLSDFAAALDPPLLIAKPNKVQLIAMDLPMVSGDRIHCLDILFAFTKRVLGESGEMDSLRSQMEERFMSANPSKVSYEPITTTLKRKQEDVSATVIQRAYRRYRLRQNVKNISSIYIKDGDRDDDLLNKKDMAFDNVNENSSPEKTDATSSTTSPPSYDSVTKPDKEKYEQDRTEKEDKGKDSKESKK

Nav1.8, sequence (Q9Y5Y9 whole entry): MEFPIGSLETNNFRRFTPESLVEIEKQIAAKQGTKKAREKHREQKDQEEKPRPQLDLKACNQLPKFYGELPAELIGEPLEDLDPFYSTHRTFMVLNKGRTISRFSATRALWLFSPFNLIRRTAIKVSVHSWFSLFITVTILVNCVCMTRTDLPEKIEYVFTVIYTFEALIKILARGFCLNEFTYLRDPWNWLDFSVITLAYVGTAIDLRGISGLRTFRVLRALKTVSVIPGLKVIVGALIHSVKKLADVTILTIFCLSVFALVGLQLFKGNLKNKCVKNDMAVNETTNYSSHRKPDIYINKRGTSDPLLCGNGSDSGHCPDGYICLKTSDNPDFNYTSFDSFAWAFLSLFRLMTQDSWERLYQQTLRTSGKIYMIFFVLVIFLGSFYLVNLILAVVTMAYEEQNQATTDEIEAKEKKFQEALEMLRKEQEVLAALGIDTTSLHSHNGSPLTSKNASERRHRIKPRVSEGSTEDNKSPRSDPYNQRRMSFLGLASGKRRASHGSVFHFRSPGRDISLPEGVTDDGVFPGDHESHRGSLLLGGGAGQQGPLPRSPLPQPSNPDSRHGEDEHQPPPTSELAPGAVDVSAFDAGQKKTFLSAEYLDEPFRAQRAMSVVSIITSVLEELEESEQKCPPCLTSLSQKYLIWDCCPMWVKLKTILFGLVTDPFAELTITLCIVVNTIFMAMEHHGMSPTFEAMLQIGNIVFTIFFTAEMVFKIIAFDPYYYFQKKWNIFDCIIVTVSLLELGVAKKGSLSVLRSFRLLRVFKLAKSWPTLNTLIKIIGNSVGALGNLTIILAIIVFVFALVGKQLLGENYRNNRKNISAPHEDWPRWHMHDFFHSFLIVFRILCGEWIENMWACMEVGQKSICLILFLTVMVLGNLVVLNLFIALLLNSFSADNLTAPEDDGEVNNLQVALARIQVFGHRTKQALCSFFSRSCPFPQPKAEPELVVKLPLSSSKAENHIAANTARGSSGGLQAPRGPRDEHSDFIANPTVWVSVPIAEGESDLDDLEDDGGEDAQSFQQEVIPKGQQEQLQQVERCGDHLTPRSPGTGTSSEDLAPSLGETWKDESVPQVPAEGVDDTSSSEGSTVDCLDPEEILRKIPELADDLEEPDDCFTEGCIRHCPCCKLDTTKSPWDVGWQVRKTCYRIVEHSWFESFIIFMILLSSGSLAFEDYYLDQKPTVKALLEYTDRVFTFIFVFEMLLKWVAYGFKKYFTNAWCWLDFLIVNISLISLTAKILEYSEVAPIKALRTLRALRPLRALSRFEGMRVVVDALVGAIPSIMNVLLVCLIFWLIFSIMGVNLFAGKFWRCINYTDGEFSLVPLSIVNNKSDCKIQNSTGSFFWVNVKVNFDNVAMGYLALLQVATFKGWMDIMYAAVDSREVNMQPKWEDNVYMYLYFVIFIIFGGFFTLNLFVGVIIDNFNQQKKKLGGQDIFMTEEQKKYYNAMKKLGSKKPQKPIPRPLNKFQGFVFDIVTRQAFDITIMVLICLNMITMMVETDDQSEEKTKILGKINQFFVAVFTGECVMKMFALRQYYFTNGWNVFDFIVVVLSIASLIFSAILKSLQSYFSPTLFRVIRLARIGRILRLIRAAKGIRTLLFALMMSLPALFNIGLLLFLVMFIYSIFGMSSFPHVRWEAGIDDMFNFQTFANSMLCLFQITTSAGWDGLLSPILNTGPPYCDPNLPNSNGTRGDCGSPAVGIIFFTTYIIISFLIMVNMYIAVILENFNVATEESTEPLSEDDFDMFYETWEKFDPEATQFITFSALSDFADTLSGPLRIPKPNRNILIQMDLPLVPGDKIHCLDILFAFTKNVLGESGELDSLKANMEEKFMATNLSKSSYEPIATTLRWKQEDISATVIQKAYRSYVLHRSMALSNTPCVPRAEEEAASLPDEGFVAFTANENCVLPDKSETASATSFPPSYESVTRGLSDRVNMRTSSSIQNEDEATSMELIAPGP
Nav1.8, sequence (Q9NY72 23-215 partner): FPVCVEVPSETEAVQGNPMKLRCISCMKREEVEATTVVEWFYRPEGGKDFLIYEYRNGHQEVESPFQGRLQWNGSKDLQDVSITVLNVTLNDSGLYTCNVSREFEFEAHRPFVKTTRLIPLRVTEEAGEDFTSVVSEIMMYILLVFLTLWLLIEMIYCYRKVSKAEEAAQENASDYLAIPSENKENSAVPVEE

For `CCC(C(=O)Nc1c(C)cccc1C)[N+]1(CC)CCCCC1` (stereo not drawn) [BW-031, 1-(1-(2,6-dimethylphenylamino)-1-oxobutan-2-yl)-1-ethylpiperidinium], on Nav1.8, the inhibition at 300 µM stood at 30 ± 18%. The compound further returned a half-inhibitory concentration (IC50) at Nav1.7 of 9.5 µM.
Compound `CC[N+](CC)(CC)CC(=O)Nc1c(C)cccc1C` [QX-314] gave an IC50 against Nav1.7 of 66 µM.
